# Reference: US11021445B2, “Carboxylic acid derivative as AT2R receptor antagonist” (SHANDONG DANHONG PHARMACEUTICAL CO., LTD., priority 2017, dated 2021)
# Biological target: T1, hAT2 (Homo sapiens, UniProt P50052)
# T1 construct: expressed in transfected cells; host or cells: HEK-293
# T1 sequence (P50052 1-363): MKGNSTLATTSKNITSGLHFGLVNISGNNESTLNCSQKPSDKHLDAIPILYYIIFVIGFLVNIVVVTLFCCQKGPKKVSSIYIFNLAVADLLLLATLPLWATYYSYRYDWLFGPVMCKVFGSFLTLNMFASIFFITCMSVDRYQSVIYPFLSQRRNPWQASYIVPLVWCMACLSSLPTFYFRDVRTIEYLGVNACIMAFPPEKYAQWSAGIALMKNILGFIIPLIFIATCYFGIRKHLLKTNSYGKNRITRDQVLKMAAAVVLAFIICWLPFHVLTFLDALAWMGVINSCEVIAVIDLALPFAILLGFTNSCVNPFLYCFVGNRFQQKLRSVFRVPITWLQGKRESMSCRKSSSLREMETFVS
# Experiment: hAT2 receptor binding assay (SPA, [125I]-Sar1-Ile8-Angiotensin II)
# Conditions: membrane of HEK-293 cells overexpressing hAT2; 0.1 nM 125I ligand
# Experimental: hAT2 Receptor Binding Assay
# Protease inhibitor mixture, free of ethylenediaminetetraacetic acid-1 tablets (Roche #11873580001) (50 mL plus one piece)
# Experimental Methods and Steps
# The reference ligand PD123319 and the test compound were prepared into a 750 μM mother liquor by DMSO; each compound was prepared into a solution of 8 concentration gradients (up to a concentration of 750 μM, 3-fold dilution) and 10 μl of the solution was added to a master of a 384-well plate per well.
# The SPA beads were prepared to a mother liquor of 25 mg/ml by the buffer;
# The isotope [^125I]-Sar1-Ile8-Angiotensin II was prepared into a mother liquor of 50 μCi/ml by adding pure water.
# The cell membrane overexpressing hAT2 in HEK-293 cells was prepared to 2.5 mg/ml by the buffer.
# 200 nl of compound was aspirated from the mother plate with ECHO to each well of the 384-well test plate. ZPE was added to an equal volume of DMSO. (The concentration of the test compound in the reaction was diluted by 250 times).
# A 50 ml membrane solution containing 10 μg/μl of magnetic beads and 0.05 μg/μl of AT2 was prepared, placed on a shaker and uniformly mixed. (100 rpm, 30 min). The test plate finally contained an hAT2 membrane with 1.25 μg/well and magnetic beads with 250 μg/well.
# A 3.2 ml membrane liquid mixture was added to the compound test plate by using a Multidrop Combi pipette, and 25 μl was added to each well.
# A 0.2 nM solution was prepared with 50 μCi/ml of isotope [^125I]-Sar1-Ile8-Angiotensin II mother liquor by the buffer, and 0.2 nM of ^125I was added to the compound test plate with a Multidrop Combi pipette. A volume of 25 μl was added to each well. The final concentration of ^125I isotope is 0.1 nM.
# The prepared test plate was placed on a shaker overnight at room temperature at 200 rpm.
# The test plate was centrifuged with a centrifuge at 1200 rpm for 1 min.
# The centrifuged test plate was read with Microbeta.
row,SMILES,IC50 [nM]
1,COc1ccc2c(c1OCc1ccccc1)C[C@@H](C(=O)O)N(C(=O)[C@H](OC1CCCC1)c1ccc(F)cc1)C2 [Compound 54],> 3000
2,COc1ccc2c(c1OCc1ccccc1)C[C@@H](C(=O)O)N(C(=O)[C@H](OC1CC3CC3C1)c1ccccc1)C2 (stereo partly shown) [Compound 56],224
3,COc1ccc2c(c1OCc1ccccc1)C[C@@H](C(=O)O)N(C(=O)[C@H](OC1(C)CCCC1)c1ccccc1)C2 [Compound 58],155
4,COc1ccc2c(c1OCc1ccccc1)C[C@@H](C(=O)O)N(C(=O)[C@H](O[C@H]1CC[C@@H](O)CC1)c1ccccc1)C2 [Compound 64],375
5,COc1ccc2c(c1OCc1ccccc1)C[C@@H](C(=O)O)N(C(=O)[C@@H](O[C@H]1CC[C@H](O)CC1)c1ccccc1)C2 [Compound 65],157
6,COc1ccc2c(c1OCc1ccccc1)C[C@@H](C(=O)O)N(C(=O)[C@H](O[C@H]1CC[C@H](O)CC1)c1ccccc1)C2 [Compound 66],> 3000
7,Cc1ccc2c(c1OCc1ccccc1)C[C@@H](C(=O)O)N(C(=O)[C@@H](O[C@H]1CC[C@@H](O)CC1)c1ccccc1)C2 [Compound 71],1090
8,O=C(O)[C@@H]1Cc2c(ccc(Cl)c2OCc2ccccc2)CN1C(=O)[C@H](OC1CC(F)(F)C1)c1ccccc1 [Compound 74],129
9,O=C(O)[C@@H]1Cc2c(ccc(Cl)c2OCc2ccccc2)CN1C(=O)[C@@H](O[C@H]1CC[C@@H](O)CC1)c1ccccc1 [Compound 77],881
10,CC1(O[C@@H](C(=O)N2Cc3cccc(OCc4ccccc4)c3C[C@H]2C(=O)O)c2ccccc2)CCCC1 [Compound 80],323
11,O=C(O)[C@@H]1Cc2c(cccc2OCc2ccccc2)CN1C(=O)[C@H](OC1CC(F)(F)C1)c1ccccc1 [Compound 84],481
12,O=C(O)[C@@H]1Cc2c(cccc2OCc2ccccc2)CN1C(=O)[C@H](O[C@H]1C[C@@H](O)C1)c1ccccc1 [Compound 86],879
13,O=C(O)[C@H]1Cc2c(ccc(Cl)c2OCc2ccccc2)CN1C(=O)[C@@H](OC1CCCC1)c1ccccc1 [Compound 108],234
14,N#Cc1ccc2c(c1OCc1ccccc1)C[C@@H](C(=O)O)N(C(=O)[C@@H](OC1CCCC1)c1ccccc1)C2 [Compound 109],1050
15,N#Cc1ccc2c(c1OCc1ccccc1)C[C@H](C(=O)O)N(C(=O)[C@@H](OC1CCCC1)c1ccccc1)C2 [Compound 110],552
16,COc1ccc2c(c1OCc1ccccc1)C[C@@](C)(C(=O)O)N(C(=O)[C@@H](OC1CCCC1)c1ccccc1)C2 [Compound 113],> 3000
17,COc1ccc2c(c1OCc1ccccc1)C[C@](C)(C(=O)O)N(C(=O)[C@H](OC1CCCC1)c1ccccc1)C2 [Compound 114],412

# The remaining compounds from weak to strong by IC50, led by results:
row,IC50 [nM],SMILES
1,126,COc1ccc2c(c1OCc1ccccc1)C[C@@H](C(=O)O)N(C(=O)[C@H](OC1CC(F)(F)C1)c1ccccc1)C2 [Compound 52]
2,116,N#Cc1ccc2c(c1OCc1ccccc1)C[C@H](C(=O)O)N(C(=O)[C@H](OC1CCCC1)c1ccccc1)C2 [Compound 112]
3,115,COc1ccc2c(c1OCc1ccccc1)C[C@@](C)(C(=O)O)N(C(=O)[C@H](OC1CCCC1)c1ccccc1)C2 [Compound 115]
4,84.1,COc1ccc2c(c1OCc1ccccc1)C[C@@H](C(=O)O)N(C(=O)[C@@H](OC1CCCC1)c1ccc(F)cc1)C2 [Compound 53]
5,83.5,O=C(O)[C@@H]1Cc2c(cccc2OCc2ccccc2)CN1C(=O)[C@@H](O[C@H]1C[C@@H](O)C1)c1ccccc1 [Compound 85]
6,72.7,CC1(O[C@@H](C(=O)N2Cc3ccc(Cl)c(OCc4ccccc4)c3C[C@H]2C(=O)O)c2ccccc2)CCCC1 [Compound 76]
7,67,Cc1ccc2c(c1OCc1ccccc1)C[C@@H](C(=O)O)N(C(=O)[C@H](OC1CC(F)(F)C1)c1ccccc1)C2 [Compound 68]
8,65.6,Cc1ccc2c(c1OCc1ccccc1)C[C@@H](C(=O)O)N(C(=O)[C@H](OC1(C)CCCC1)c1ccccc1)C2 [Compound 70]
9,30.4,O=C(O)[C@@H]1Cc2c(ccc(O)c2OCc2ccccc2)CN1C(=O)[C@@H](OC1CCCC1)c1ccccc1 [Compound 118]
10,20.8,O=C(O)[C@@H]1Cc2c(cccc2OCc2ccccc2)CN1C(=O)[C@H](O[C@H]1CC[C@@H](O)CC1)c1ccccc1 [Compound 82]
11,9.1,COc1ccc2c(c1OCc1cccs1)C[C@@H](C(=O)O)N(C(=O)[C@@H](OC1CCCC1)c1ccccc1)C2 [Compound 117]
12,7.4,O=C(O)[C@@H]1Cc2c(ccc(Cl)c2OCc2ccccc2)CN1C(=O)[C@H](O[C@H]1CC[C@@H](O)CC1)c1ccccc1 [Compound 78]
13,5.8,CC1(O[C@H](C(=O)N2Cc3cccc(OCc4ccccc4)c3C[C@H]2C(=O)O)c2ccccc2)CCCC1 [Compound 79]
14,5.3,Cc1ccc2c(c1OCc1ccccc1)C[C@@H](C(=O)O)N(C(=O)[C@H](O[C@H]1CC[C@@H](O)CC1)c1ccccc1)C2 [Compound 72]
15,4.4,COc1ccc2c(c1OCc1ccccc1)C[C@@H](C(=O)O)N(C(=O)[C@@H](OC1CC3CC3C1)c1ccccc1)C2 (stereo partly shown) [Compound 55]
16,3.9,CC1(O[C@H](C(=O)N2Cc3ccc(Cl)c(OCc4ccccc4)c3C[C@H]2C(=O)O)c2ccccc2)CCCC1 [Compound 75]
17,3.7,O=C(O)[C@@H]1Cc2c(ccc(Cl)c2OCc2ccccc2)CN1C(=O)[C@@H](OC1CC(F)(F)C1)c1ccccc1 [Compound 73]
18,3.2,O=C(O)[C@@H]1Cc2c(cccc2OCc2ccccc2)CN1C(=O)[C@@H](OC1CC(F)(F)C1)c1ccccc1 [Compound 83]
19,1.7,Cc1ccc2c(c1OCc1ccccc1)C[C@@H](C(=O)O)N(C(=O)[C@@H](OC1(C)CCCC1)c1ccccc1)C2 [Compound 69]
20,1.6,Cc1ccc2c(c1OCc1ccccc1)C[C@@H](C(=O)O)N(C(=O)[C@@H](OC1CC(F)(F)C1)c1ccccc1)C2 [Compound 67]
